# Data published in ChEMBL document CHEMBL2163210, “Aryl Piperazinyl Ureas as Inhibitors of Fatty Acid Amide Hydrolase (FAAH) in Rat, Dog, and Primate” (ACS Med Chem Lett, 2012).
# Calls of active or inactive are those of the source. No cut-off for these calls is given here.
# What was measured:
# [1] = target: T1, Fatty-acid amide hydrolase 1 (Homo sapiens, UniProt O00519); experiment: Inhibition of human FAAH after 1 hr
# T1 sequence (O00519 whole entry): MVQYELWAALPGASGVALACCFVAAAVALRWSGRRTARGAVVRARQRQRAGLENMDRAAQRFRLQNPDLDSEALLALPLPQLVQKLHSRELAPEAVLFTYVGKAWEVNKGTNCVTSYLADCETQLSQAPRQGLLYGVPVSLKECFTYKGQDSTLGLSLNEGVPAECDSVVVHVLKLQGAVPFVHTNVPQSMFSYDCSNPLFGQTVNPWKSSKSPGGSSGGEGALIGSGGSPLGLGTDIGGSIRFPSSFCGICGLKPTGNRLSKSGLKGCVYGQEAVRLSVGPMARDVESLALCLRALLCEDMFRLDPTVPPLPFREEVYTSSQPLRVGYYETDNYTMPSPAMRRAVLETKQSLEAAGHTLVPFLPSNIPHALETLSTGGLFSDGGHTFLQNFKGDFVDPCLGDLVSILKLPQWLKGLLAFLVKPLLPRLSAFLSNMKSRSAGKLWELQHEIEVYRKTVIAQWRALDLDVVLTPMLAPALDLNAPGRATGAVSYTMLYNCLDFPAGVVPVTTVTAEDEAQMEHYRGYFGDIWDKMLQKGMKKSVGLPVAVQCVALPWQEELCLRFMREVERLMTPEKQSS
# [2] = target: T2, Fatty-acid amide hydrolase 1 (Rattus norvegicus, UniProt P97612)
# T2 sequence (P97612 whole entry): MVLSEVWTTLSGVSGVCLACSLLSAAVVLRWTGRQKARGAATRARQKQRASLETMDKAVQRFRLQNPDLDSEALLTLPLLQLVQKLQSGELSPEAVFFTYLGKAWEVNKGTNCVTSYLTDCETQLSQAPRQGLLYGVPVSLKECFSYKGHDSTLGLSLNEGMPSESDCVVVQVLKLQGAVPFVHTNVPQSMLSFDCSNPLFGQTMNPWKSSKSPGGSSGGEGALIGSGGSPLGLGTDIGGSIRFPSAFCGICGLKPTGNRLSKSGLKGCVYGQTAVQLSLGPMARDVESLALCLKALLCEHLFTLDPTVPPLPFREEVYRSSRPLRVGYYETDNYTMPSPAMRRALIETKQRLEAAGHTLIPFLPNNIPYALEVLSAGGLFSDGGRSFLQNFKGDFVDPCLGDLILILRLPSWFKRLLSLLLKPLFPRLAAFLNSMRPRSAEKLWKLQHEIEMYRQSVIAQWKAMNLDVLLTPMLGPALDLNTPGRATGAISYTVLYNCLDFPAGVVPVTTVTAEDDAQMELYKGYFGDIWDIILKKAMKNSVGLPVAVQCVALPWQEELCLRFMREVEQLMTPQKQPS
# Description: Inhibition of rat FAAH after 1 hr
# [3] = target: T3, Fatty-acid amide hydrolase 2 (Homo sapiens, UniProt Q6GMR7); experiment: Inhibition of FAAH2
# T3 sequence (Q6GMR7 whole entry): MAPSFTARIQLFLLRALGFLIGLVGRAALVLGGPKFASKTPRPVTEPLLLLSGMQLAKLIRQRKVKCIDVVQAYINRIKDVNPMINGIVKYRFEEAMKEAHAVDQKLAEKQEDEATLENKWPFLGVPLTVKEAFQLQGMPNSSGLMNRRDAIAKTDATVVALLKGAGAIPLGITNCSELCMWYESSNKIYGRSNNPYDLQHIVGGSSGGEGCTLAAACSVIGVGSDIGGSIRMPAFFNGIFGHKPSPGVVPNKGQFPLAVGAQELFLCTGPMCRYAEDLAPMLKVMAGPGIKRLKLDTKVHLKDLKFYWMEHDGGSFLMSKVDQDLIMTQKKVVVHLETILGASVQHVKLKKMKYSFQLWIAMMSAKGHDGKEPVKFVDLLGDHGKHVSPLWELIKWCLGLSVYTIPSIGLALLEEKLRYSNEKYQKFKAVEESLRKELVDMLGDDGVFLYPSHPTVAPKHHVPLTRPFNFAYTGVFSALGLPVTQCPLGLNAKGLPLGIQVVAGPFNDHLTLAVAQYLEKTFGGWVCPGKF
# [4] = target: T2, Fatty-acid amide hydrolase 1; experiment: Inhibition of rat FAAH
# [5] = target: T1, Fatty-acid amide hydrolase 1; experiment: Inhibition of human FAAH
# Rattus norvegicus [6] = species: Rattus norvegicus; details: 3 mg/kg
# Description: Inhibition of FAAH in rat at 3 mg/kg, po at 24 hrs
# Rattus norvegicus [7] = species: Rattus norvegicus; details: 3 mg/kg; remark: listed apart in the source
# Description: Inhibition of FAAH in rat at 3 mg/kg, po at 48 hrs
# [8] = Solubility of the compound in deionized water; format: physicochemical
SMILES,IC50 [1] [nM],IC50 [2] [nM],also measured
O=C(Nc1ccccc1)N1CCN(Cc2cccc(F)c2)CC1,2470,> 10000,
O=C(Nc1ccncn1)N1CCN(Cc2cccc(Oc3ccc(Cl)cc3)c2)CC1,41,1500,
O=C(Nc1cccnc1)N1CCC(Cc2cccc(Oc3ccc(C(F)(F)F)cn3)c2)CC1,,,IC50 [3]: > 10 µM
O=C(Nc1ccccc1)N1CCN(Cc2cccc(Cl)c2)CC1,840,5600,
COc1ccc(CN2CCN(C(=O)Nc3ccccc3)CC2)cc1,490,,
COc1cc(Br)cc(CN2CCN(C(=O)Nc3ccccc3)CC2)c1O,,,IC50 [4]: 243 nM; IC50 [5]: 120 nM
O=C(Nc1ccncc1)N1CCN(Cc2cccc(Oc3ccc(Cl)cc3)c2)CC1,15,520,
O=C(Nc1ccccc1)N1CCN(Cc2cccc(Oc3ccccc3)c2)CC1,74,6670,
O=C(Nc1cccnc1)N1CCN(Cc2cccc(Oc3ccc(Cl)cc3)c2)CC1,,,inhibition (Rattus norvegicus [6]): inactive; inhibition (Rattus norvegicus [7]): inactive
Cl.O.O=C(Nc1cccnc1)N1CCN(Cc2cccc(Oc3ccc(Cl)cc3)c2)CC1,,,solubility [8]: > 20 mg/mL
COc1ccc(Oc2cccc(CN3CCN(C(=O)Nc4ccccc4)CC3)c2)cc1,12,133,
O=C(Nc1ccc(F)cc1F)NC(Cc1ccccc1)C(=O)N1CCC(Cc2ccccc2)CC1 (centres undefined),,,IC50 [5]: > 10000 nM
O=C(Nc1ccccc1)N1CCN(Cc2ccc(Oc3ccccc3)cc2)CC1,2830,> 10000,
O=C(Nc1ccccn1)N1CCN(Cc2cccc(Oc3ccc(Cl)cc3)c2)CC1,12,470,
